Reference: PubChem BioAssay (NCI)
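Where inhibition never reached the appropriate level, the endpoint shown equals the highest concentration tested. Otherwise, values were interpolated linearly from a five-concentration, 48-hour dose response in 96-well plates. TGI: concentration producing complete growth inhibition.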

Key:
Experiment in all cases: inhibition of tumour cell growth, NCI panel, 48 h
[1] = test system: 786-0 renal
[2] = test system: A498 renal
[3] = test system: A549 NSCLC
[4] = test system: ACHN renal
[5] = test system: BT-549 breast
[6] = test system: CAKI-1 renal
[7] = test system: CCRF-CEM leukemia
[8] = test system: COLO 205 colon
[9] = test system: DU-145 prostate
[10] = test system: EKVX NSCLC
[11] = test system: HCC-2998 colon
[12] = test system: HCT-116 colon
[13] = test system: HCT-15 colon
[14] = test system: HOP-62 NSCLC
[15] = test system: HOP-92 NSCLC
[16] = test system: IGROV1 ovarian
[17] = test system: K-562 leukemia
[18] = test system: KM12 colon
[19] = test system: LOX IMVI melanoma
[20] = test system: M14 melanoma
[21] = test system: MCF7 breast
[22] = test system: MDA-MB-231 breast
[23] = test system: MDA-MB-435
[24] = test system: MDA-N
[25] = test system: MOLT-4 leukemia
[26] = test system: NCI-H226 lung
[27] = test system: NCI-H23 lung
[28] = test system: NCI-H460 lung
[29] = test system: NCI/ADR-RES ovarian
[30] = test system: OVCAR-3 ovarian
[31] = test system: OVCAR-4 ovarian
[32] = test system: OVCAR-5 ovarian
[33] = test system: OVCAR-8 ovarian
[34] = test system: PC-3 prostate
[35] = test system: RPMI-8226 leukemia
[36] = test system: RXF 393 renal
[37] = test system: SF-295 CNS
[38] = test system: SF-539 CNS
[39] = test system: SK-MEL-2 melanoma
[40] = test system: SK-MEL-28 melanoma
[41] = test system: SK-MEL-5 melanoma
[42] = test system: SN12C renal
[43] = test system: SNB-19 CNS
[44] = test system: SNB-75 CNS
[45] = test system: SR leukemia
[46] = test system: SW-620 colon
[47] = test system: T-47D breast
[48] = test system: U251 CNS
[49] = test system: UACC-257 melanoma
[50] = test system: UACC-62 melanoma
[51] = test system: UO-31 renal
[52] = test system: HL-60(TB) leukemia
[53] = test system: HT29 colon
[54] = test system: MALME-3M melanoma
[55] = test system: SF-268 CNS
[56] = test system: TK-10 renal
[57] = test system: HS 578T breast
[58] = test system: NCI-H522 lung
[59] = test system: SK-OV-3 ovarian

`CC1=CCC[C@H]2[C@](C)(CC3=CC(=O)C4SCCSC4C3=O)[C@@H](C)CC[C@]12C` (stereo not given in full) was tested, and the TGI [1] was 35 µM, the TGI [2] was 31.2 µM and the TGI [3] was 38.3 µM. For the same molecule, the TGI [4] was 46.1 µM, the TGI [5] was 39.7 µM and the TGI [6] was 99.2 µM. For the same molecule, the TGI [7] was 48.7 µM, the TGI [8] was 35.9 µM and the TGI [9] was 66.9 µM. The TGI [10] was 54.4 µM, the TGI [11] was 55.8 µM and the TGI [12] was 31 µM. For the same molecule, the TGI [13] was 67.1 µM, the TGI [14] was 31.1 µM and the TGI [15] was 70.4 µM. The TGI [16] was 84.6 µM, the TGI [17] was 96.2 µM and the TGI [18] was > 100 µM. For the same molecule, the TGI [19] was 24.3 µM, the TGI [20] was 29.8 µM and the TGI [21] was 63.8 µM. It also gave a TGI [22] of 46.7 µM, a TGI [23] of 58.7 µM and a TGI [24] of 25.9 µM. It also gave a TGI [25] of 80.7 µM, a TGI [26] of 30.3 µM and a TGI [27] of 31.9 µM. For the same molecule, the TGI [28] was 65 µM, the TGI [29] was 47.2 µM and the TGI [30] was 48.4 µM. The TGI [31] was > 100 µM, the TGI [32] was 37.5 µM and the TGI [33] was 39.6 µM. It also gave a TGI [34] of 49.4 µM, a TGI [35] of 41.8 µM and a TGI [36] of 44.8 µM. The TGI [37] was 32.8 µM, the TGI [38] was 40.3 µM and the TGI [39] was 23.2 µM. The TGI [40] was 38.4 µM, the TGI [41] was 26.7 µM and the TGI [42] was 28.8 µM. It also gave a TGI [43] of 37.1 µM, a TGI [44] of 80.8 µM and a TGI [45] of 53.6 µM. The TGI [46] was 65.6 µM, the TGI [47] was > 100 µM and the TGI [48] was 34.5 µM. It also gave a TGI [49] of 64 µM, a TGI [50] of 39.9 µM and a TGI [51] of 40.1 µM.

In the case of `COC(=O)C(CCCCNC(=O)CNC(=O)OCc1ccccc1)NC(=O)C(CCCCNC(=O)CNC(=O)OCc1ccccc1)NC(=O)OCc1ccccc1` (stereo not given), the TGI [1] is reported as > 100 µM, the TGI [2] is reported as > 100 µM and the TGI [3] is reported as > 100 µM. For the same molecule, the TGI [4] was > 100 µM, the TGI [5] was > 100 µM and the TGI [6] was > 100 µM. For the same molecule, the TGI [7] was > 100 µM, the TGI [9] was > 100 µM and the TGI [11] was > 100 µM. For the same molecule, the TGI [12] was > 100 µM, the TGI [13] was > 100 µM and the TGI [52] was > 100 µM. The TGI [14] was > 100 µM, the TGI [53] was > 100 µM and the TGI [17] was > 100 µM. The TGI [19] was > 100 µM, the TGI [20] was > 100 µM and the TGI [54] was > 100 µM. The TGI [21] was 19.1 µM, the TGI [22] was > 100 µM and the TGI [23] was > 100 µM. The TGI [24] was > 100 µM, the TGI [25] was > 100 µM and the TGI [26] was > 100 µM. The TGI [27] was > 100 µM, the TGI [28] was > 100 µM and the TGI [30] was > 100 µM. The TGI [31] was 89.9 µM, the TGI [32] was > 100 µM and the TGI [33] was > 100 µM. For the same molecule, the TGI [34] was > 100 µM, the TGI [35] was 53.5 µM and the TGI [55] was > 100 µM. The TGI [39] was 54.2 µM, the TGI [40] was > 100 µM and the TGI [41] was > 100 µM. For the same molecule, the TGI [42] was > 100 µM, the TGI [43] was > 100 µM and the TGI [44] was > 100 µM. The TGI [45] was > 100 µM, the TGI [46] was > 100 µM and the TGI [47] was > 100 µM. For the same molecule, the TGI [56] was > 100 µM, the TGI [48] was > 100 µM and the TGI [49] was > 100 µM. For the same molecule, the TGI [50] was > 100 µM and the TGI [51] was > 100 µM.

`COc1cc(OC)c(C2c3cc4c(cc3OC(N3CCOCC3)C2C)OCO4)c(OC)c1` (stereo not given) was tested, and the TGI [1] was > 100 µM, the TGI [3] was > 100 µM and the TGI [4] was 82.4 µM. For the same molecule, the TGI [7] was > 100 µM, the TGI [8] was > 100 µM and the TGI [9] was > 100 µM. The TGI [10] was > 100 µM, the TGI [11] was > 100 µM and the TGI [12] was > 100 µM. For the same molecule, the TGI [13] was > 100 µM, the TGI [14] was > 100 µM and the TGI [57] was 20.5 µM. For the same molecule, the TGI [53] was > 100 µM, the TGI [16] was > 100 µM and the TGI [17] was > 100 µM. For the same molecule, the TGI [18] was > 100 µM, the TGI [19] was > 100 µM and the TGI [20] was > 100 µM. The TGI [21] was > 100 µM, the TGI [23] was > 100 µM and the TGI [24] was > 100 µM. The TGI [25] was > 100 µM, the TGI [27] was > 100 µM and the TGI [28] was > 100 µM. For the same molecule, the TGI [58] was > 100 µM, the TGI [29] was > 100 µM and the TGI [30] was > 100 µM. The TGI [32] was > 100 µM, the TGI [33] was > 100 µM and the TGI [34] was > 100 µM. For the same molecule, the TGI [35] was > 100 µM, the TGI [55] was > 100 µM and the TGI [37] was > 100 µM. For the same molecule, the TGI [38] was > 100 µM, the TGI [39] was > 100 µM and the TGI [40] was > 100 µM. For the same molecule, the TGI [41] was > 100 µM, the TGI [42] was > 100 µM and the TGI [43] was > 100 µM. The TGI [44] was 93.2 µM, the TGI [45] was > 100 µM and the TGI [46] was > 100 µM. The TGI [47] was > 100 µM, the TGI [56] was > 100 µM and the TGI [49] was > 100 µM. The TGI [50] was > 100 µM and the TGI [51] was > 100 µM.

`CCOC(=O)c1csc(NC(=O)CCCC#N)n1` was tested, and the TGI [2] was > 100 µM, the TGI [3] was > 100 µM and the TGI [4] was > 100 µM. For the same molecule, the TGI [6] was > 100 µM, the TGI [7] was > 100 µM and the TGI [8] was > 100 µM. The TGI [9] was > 100 µM, the TGI [11] was > 100 µM and the TGI [13] was > 100 µM. For the same molecule, the TGI [52] was > 100 µM, the TGI [14] was > 100 µM and the TGI [15] was > 100 µM. The TGI [57] was > 100 µM, the TGI [53] was > 100 µM and the TGI [17] was > 100 µM. For the same molecule, the TGI [18] was > 100 µM, the TGI [19] was > 100 µM and the TGI [20] was > 100 µM. For the same molecule, the TGI [21] was > 100 µM, the TGI [22] was > 100 µM and the TGI [23] was > 100 µM. The TGI [24] was > 100 µM, the TGI [25] was > 100 µM and the TGI [26] was > 100 µM. For the same molecule, the TGI [27] was > 100 µM, the TGI [28] was > 100 µM and the TGI [29] was > 100 µM. The TGI [30] was > 100 µM, the TGI [31] was > 100 µM and the TGI [32] was > 100 µM. For the same molecule, the TGI [33] was > 100 µM, the TGI [34] was > 100 µM and the TGI [35] was > 100 µM. The TGI [36] was > 100 µM, the TGI [37] was > 100 µM and the TGI [38] was > 100 µM. For the same molecule, the TGI [39] was > 100 µM, the TGI [40] was > 100 µM and the TGI [41] was > 100 µM. For the same molecule, the TGI [59] was > 100 µM, the TGI [43] was > 100 µM and the TGI [44] was > 100 µM. The TGI [45] was > 100 µM, the TGI [46] was > 100 µM and the TGI [47] was > 100 µM. For the same molecule, the TGI [56] was > 100 µM, the TGI [48] was > 100 µM and the TGI [49] was > 100 µM. For the same molecule, the TGI [50] was > 100 µM and the TGI [51] was > 100 µM.
